From patent US20230010110A1, “HISTATIN-1 FORMULATION FOR THE TREATMENT, REPAIR OR REGENERATION OF BONE TISSUE IN A SUBJECT” (UNIVERSIDAD DE CHILE, priority 2019, published 2023)
Entries after “also recorded” stand apart in the source; their conditions may differ.

How the values were obtained:
[1] = system: SAOS-2 osteosarcoma cells; experiment: in vitro cell adhesion to fibronectin coated plates, crystal violet staining; type: cell-based; conditions: SAOS-2, 10 μM Histatin-1, fibronectin 2 μg/ml, 5-60 min, serum-free medium
Experimental: (§1) For this, (A) SAOS 2 cells were collected, resuspended in serum-free medium either containing or not 10 μM Histatin-1, and incubated for 30 min. Cells were then allowed to attach to fibronectin coated plates (2 μg/ml) for 5, 10, 15, 30, 45 and 60 min in serum-free medium, containing or not 10 μM Histatin-1. Cell adhesion was detected by crystal violet staining and counting under an optic microscope. Representative images are shown for each time point, in the absence or presence of Histatin 1. […] (B, C and D) Cell migration was measured in Transwell chambers coated with 2 μg/ml fibronectin. Briefly, SAOS 2 (B), MC3T3 E1 cells (C) and APMCs (apical papilla mesenchymal cells, D) were allowed to migrate for 60 min in Transwell chambers, in the presence of 10 μM Histatin 1 or 10 μM of non-phosphorylated Histatin 1 (no P), 10 μM of a scramble sequence or vehicle control (H2O). Cells that migrated were visualized by crystal violet staining. Representative images are shown, and graphs represent the averages of 3 independent experiments (mean±s.e.m; *p<0.05; **p<0.01).

MC3T3-E1 pre-osteoblasts = experiment: Transwell cell migration assay; type: cell-based; conditions: MC3T3-E1, 10 μM, 60 min, Transwell coated with 2 μg/ml fibronectin
Experimental: as §1

[2] = system: SAOS-2 osteosarcoma cells; experiment: Transwell cell migration assay; type: cell-based; conditions: SAOS-2, 10 μM, 60 min, Transwell coated with 2 μg/ml fibronectin
Experimental: as §1

[3] = system: apical papilla mesenchymal cells, APMCs; experiment: Transwell cell migration assay; type: cell-based; conditions: 10 μM, 60 min, Transwell coated with 2 μg/ml fibronectin
Experimental: as §1

MC3T3-E1 preosteoblasts = experiment: in vitro mineralization test (alizarin red); type: cell-based; conditions: MC3T3-E1, 10 μM, 7 days
Experimental: (§2) The ability of Histatin-1 to stimulate the formation of calcium deposits was determined by the alizarin red staining test. For this, SAOS-2 cells, MC3T3-E1 preosteoblasts, stem cells from the apical papilla or dental pulp stem cells were grown in complete medium supplemented with bovine serum, in the absence or presence 10 μM Histatin-1 for 7 days. […] Cells were washed with PBS, fixed with 4% paraformaldehyde, and stained with Alizarin Red aqueous solution for 1 h. Finally, samples were washed with distilled water and subsequently with PBS. Calcium deposits were visualized in an optic microscope. Representative images are shown, and graphs represent the quantification of the amount of calcium deposits. Values are shown as the mean±s.e.m (*p<0.01; ***p<0.001).

SAOS-2 cells = experiment: in vitro mineralization test (alizarin red); type: cell-based; conditions: SAOS-2, 10 μM, 7 days
Experimental: as §2

[4] = system: dental pulp mesenchymal cells; experiment: in vitro mineralization test (alizarin red); type: cell-based; conditions: dental pulp mesenchymal (stem) cells, 10 μM, 7 days
Experimental: as §2
(§3) The same procedure was performed on stem cells of the apical papilla and dental pulp.

[5] = system: stem cells from the apical papilla (APMCs); experiment: in vitro mineralization test (alizarin red); type: cell-based; conditions: 10 μM, 7 days
Experimental: as §2, §3

[6] = system: Alkaline Phosphatase (ALP) in MC3T3-E1 cells; experiment: Western blot of alkaline phosphatase in whole cell lysates; type: cell-based; conditions: MC3T3-E1, 10 μM, 24 h
Experimental: (§4) In (A) SAOS-2 and (B) MC3T3-E1 cells were incubated in the absence or presence of 10 μM Histatin-1 for 24 h, and whole cell lysates were analyzed by Western blotting of ALP. […] In (C) SAOS-2 cells were treated or not with 10 μM Histatin-1 for 24 and 48 h, and the activity of alkaline phosphatase (ALP) was measured by metabolization of the substrate p-nitrophenyl phosphate, following absorbance at 405 nm.
(§5) By Western blot assay, the effect of Histatin-1 on the expression of two proteins involved in the osteogenesis process (alkaline phosphatase, β-catenin) was evaluated. For this, SAOS-2 or MC3T3-E1 cells were seeded on 60 mm plates, grown in complete medium supplemented with bovine serum for 24 h, washed with PBS and then incubated for 24 h with either serum-free medium or serum-free medium containing 10 μM Histatin-1. […] Bound first antibodies were detected with HRP-conjugated second antibodies and detected with the EZ-ECL system.
(§6) Representative Western blot images are shown, and relative levels of ALP were quantified by scanning densitometry and normalized to actin. […] (C) SAOS 2 cells were treated or not with 10 μM Histatin 1 for 24 and 48 h, and the activity of alkaline phosphatase (ALP) was measured by metabolization of the substrate p-nitrophenyl phosphate, following absorbance at 405 nm. […]

[7] = system: Alkaline Phosphatase (ALP) in SAOS-2 cells; experiment: as above; type: cell-based; conditions: SAOS-2, 10 μM, 24 h
Experimental: as §4, §5, §6

[8] = system: Alkaline Phosphatase (ALP) in SAOS-2 cells; experiment: alkaline phosphatase activity, p-nitrophenyl phosphate, absorbance at 405 nm; type: cell-based; conditions: SAOS-2, 10 μM, 24 and 48 h
Experimental: as §4
Representative Western blot images are shown, and relative levels of ALP were quantified by scanning densitometry and normalized to actin. Graphs represent the average from 3 independent experiments (mean±s.e.m.; *p<0.05). (C) SAOS 2 cells were treated or not with 10 μM Histatin 1 for 24 and 48 h, and the activity of alkaline phosphatase (ALP) was measured by metabolization of the substrate p-nitrophenyl phosphate, following absorbance at 405 nm. Data were averaged from 3 independent experiments and shown as residual activity (% increase with respect to the control condition; mean±s.e.m; *p<0.05).

[9] = system: β-catenin in SAOS-2 cells; experiment: Western blot of β-catenin in whole cell lysates; type: cell-based; conditions: SAOS-2, 10 μM, 24 h
Experimental: (§7) In (A) SAOS-2 cells were incubated in the absence or presence of 10 μM Histatin-1 for 24 h, and whole cell lysates were prepared for Western blot analysis of β-catenin. […] In (B) SAOS-2 cells were incubated with Histatin-1 for 24 hours. Cells were then fixed, permeabilized and incubated with primary and secondary antibodies for subsequent immunofluorescence analysis of total and non-phosphorylated (transcriptionally active) β-catenin.
as §5
Representative Western blot images are shown, and relative levels of β catenin were quantified by scanning densitometry and normalized to actin. […] (B) SAOS 2 cells were treated or not with 10 μM Histatin 1 for 24 h, then fixed, permeabilized and analyzed incubated with primary and secondary antibodies for subsequent immunofluorescence analysis of total and non-phosphorylated (transcriptionally active) β-catenin. […]

[10] = system: β-catenin in SAOS-2 cells; experiment: immunofluorescence of total and non-phosphorylated β-catenin nuclear localization; type: cell-based; conditions: SAOS-2, 10 μM, 24 h
Experimental: as §7
Representative Western blot images are shown, and relative levels of β catenin were quantified by scanning densitometry and normalized to actin. Graphs represent the average from 3 independent experiments (mean±s.e.m.; *p<0.05). (B) SAOS 2 cells were treated or not with 10 μM Histatin 1 for 24 h, then fixed, permeabilized and analyzed incubated with primary and secondary antibodies for subsequent immunofluorescence analysis of total and non-phosphorylated (transcriptionally active) β-catenin. Left panels show representative confocal microscopy images of total and active β-catenin, whereas nuclei staining with DAPI was used as reference. […]
Alternatively, SAOS-2 cells grown on coverslips were fixed, permeabilized and analyzed for total and active β-catenin nuclear localization.

[11] = system: Runx2, osteocalcin, osteopontin and ALP mRNA in APMCs; experiment: RT qPCR of osteoblastic differentiation markers; type: cell-based; conditions: 10 μM, 7 days
Experimental: (§8) (A) MC3T3-E1 and (B) AMPCs cells were treated or not with 10 μM Histatin-1 for 7 days. Total RNA was extracted, for subsequent RT qPCR analysis of Runx2, osteocalcin, osteopontin and ALP.
(§9) To evaluate the differentiation towards bone lineage in the presence of Histatin-1, the expression of the osteocalcin, osteopontin, Runx2 and ALP gene were determined, as markers of differentiation, by means of a qPCR assay for mRNA content analysis. For this, osteoblasts-like cells and stem cells from the apical papilla were grown in complete medium supplemented with bovine serum, in the absence or presence of 10 μM Histatin-1 for 24 h. Total RNA was extracted with TRIZOL (Invitrogen, Life Technologies), following the manufacturer's instructions. For cDNA synthesis, samples were treated with RNase-Free DNase kit (#M6101 Promega), quantified and purity was verified for subsequent reverse transcription, using the cDNA Reverse Transcription Kit (Applied Biosystems). Alkaline phosphatase, osteocalcin, osteopontin, Runx2 and GAPDH were quantified by qRT-PCR (Applied Biosystems, ΔΔCt method).
(§10) Total RNA was extracted, for subsequent RT qPCR analysis of Runx2, osteocalcin, osteopontin and ALP. Relative abundance of all screened mRNAs was normalized to GAPDH, by using the ΔΔCT method. Graphs show data obtained by averaging 3 independent experiments (mean±s.e.m.; *p<0.05; **p<0.01).

[12] = system: Runx2, osteocalcin, osteopontin and ALP mRNA in MC3T3-E1 cells; experiment: RT qPCR of osteoblastic differentiation markers; type: cell-based; conditions: MC3T3-E1, 10 μM, 7 days
Experimental: as §8, §9, §10

osteoblastic cells = conditions: zoledronic acid challenge; cited from earlier work
endothelial cells = conditions: in vitro; cited from earlier work
angiogenesis = conditions: in vivo; cited from earlier work

## Histatin-1: human salivary peptide of 38 amino acids, obtained by chemical synthesis, with the sequence SEQ ID NO. 1 (DSHEKRHHGYRRKFHEKHHSHREFPFYGDYGSNYLYDN; listed as Homo sapiens)
[1]
  cell adhesion: favors both cell adhesion and migration
MC3T3-E1 pre-osteoblasts
  cell migration: favors both cell adhesion and migration
[2]
  cell migration: favors both cell adhesion and migration
[3]
  cell migration: favors both cell adhesion and migration
MC3T3-E1 preosteoblasts
  calcium deposits / crystal nucleation sites (alizarin red): increases the number of crystal nucleation sites; also recorded: increased staining of the culture with Alizarin Red
SAOS-2 cells
  calcium deposits / crystal nucleation sites (alizarin red): increases the number of crystal nucleation sites; also recorded: increased staining of the culture with Alizarin Red
[4]
  calcium deposits / crystal nucleation sites (alizarin red): increases the number of crystal nucleation sites; also recorded: stimulated the formation of calcium deposits
[5]
  calcium deposits / crystal nucleation sites (alizarin red): increases the number of crystal nucleation sites; also recorded: stimulated the formation of calcium deposits
[6]
  protein levels of ALP (Western blot, normalized to actin): increases the protein levels of ALP
[7]
  protein levels of ALP (Western blot, normalized to actin): increases the protein levels of ALP; also recorded: increased the production of this enzyme
[8]
  activity of alkaline phosphatase (ALP): increases the activity of ALP
[9]
  protein levels of β-catenin (Western blot, normalized to actin): increases the protein levels of β-catenin; also recorded: increases the expression of the protein
[10]
  nuclear localization of active (non-phosphorylated) β-catenin: increases the nuclear localization of total and active β-catenin
  nuclear localization of total β-catenin: increases the nuclear localization of total and active β-catenin
[11]
  mRNA of osteoblastic differentiation markers (Runx2, osteocalcin, osteopontin, ALP), normalized to GAPDH: increases the mRNA of different osteoblastic differentiation markers; also recorded: induces an increase in the relative abundance of mRNA
[12]
  mRNA of osteoblastic differentiation markers (Runx2, osteocalcin, osteopontin, ALP), normalized to GAPDH: increases the mRNA of different osteoblastic differentiation markers; also recorded: induces an increase in the relative abundance of mRNA
Osteoblastic cells
  cell migration in cells challenged with zoledronic acid: restored both cell migration and viability
  cell viability in cells challenged with zoledronic acid: restored both cell migration and viability
Endothelial cells
  endothelial cell migration: stimulating endothelial cell migration
  formation of endothelial structures: formation of endothelial structures in vitro
angiogenesis
  angiogenesis: angiogenesis in vivo
